Among the data in PMC10338423, “Synthesis and preclinical evaluation of a novel fluorine-18 labeled small-molecule PET radiotracer for imaging of CXCR3 receptor in mouse models of atherosclerosis” (EJNMMI Research, 2023) are Ki, IC50 and Kd values, retold here.

In one experiment the target is T1, CXCR3A (Homo sapiens, UniProt P49682).
T1 construct: crude membranes
T1 sequence (P49682 1-368): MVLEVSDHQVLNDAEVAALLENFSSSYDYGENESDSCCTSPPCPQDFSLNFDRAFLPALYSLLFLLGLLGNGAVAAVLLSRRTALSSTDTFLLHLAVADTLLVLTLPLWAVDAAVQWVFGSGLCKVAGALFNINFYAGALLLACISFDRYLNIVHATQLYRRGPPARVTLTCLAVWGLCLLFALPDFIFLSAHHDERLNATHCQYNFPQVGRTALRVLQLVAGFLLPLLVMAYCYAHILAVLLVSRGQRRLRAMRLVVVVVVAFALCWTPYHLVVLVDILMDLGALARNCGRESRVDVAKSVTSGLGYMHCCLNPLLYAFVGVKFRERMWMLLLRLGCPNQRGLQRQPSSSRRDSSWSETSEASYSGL
The experiment in a line: Competition binding assay with [125I]CXCL10 on membranes of CXCR3A-transfected HEK293 cells. As to conditions: 80 pM 125I-CXCL10, Cheng-Prusoff. As for the experimental part:
(§1) The equilibrium inhibition constants (Ki) value of 1 at CXCR3 receptor was measured through competition binding assay using NBI74330 (Tocris Bioscience, Bristol, UK), an antagonist of CXCR3 receptor, [^125I]CXCL10 (ViTrax Inc., Placentia, CA) and CXCR3 transfected human embryonic kidney (HEK) 293 cells. CXCR3 has two major variants, CXCR3A and CXCR3B, with distinctive biological roles, so two types of HEK293 cells containing each CXCR3 variant were prepared. Before the cell-binding assay, two cDNA constructs containing CXCR3 transcript variant A (CXCR3A, GenBank accession No. NM_001504; GenScript) and CXCR3 transcript variant B (CXCR3B, GenBank accession No. NM_001142797; GenScript) and HEK293 cells were purchased from GenScript Biotech (Piscataway, NJ) and ATCC (Manassas, VA), respectively. Then the cDNA constructs were transfected to HEK293 cells, and the transfected cells were cultured to get enough amount for the cell-binding assay. […] The IC50 value of 1 was measured based on the regression plot between the […] radioligand and the different concentrations of 1. […]
(§2) Radioligand binding was performed using crude HEK293 membranes overexpressing CXCR3A or CXCR3B as previously described. […] The Ki values of each competitive antagonist for specific ^125I-CXCL10 binding sites were calculated using the method of Cheng and Prusoff, as previously described. […]

The target of a further experiment is T2, CXCR3B (Homo sapiens, UniProt P49682).
T2 construct: crude membranes
T2 sequence (P49682 1-415 isoform P49682-2): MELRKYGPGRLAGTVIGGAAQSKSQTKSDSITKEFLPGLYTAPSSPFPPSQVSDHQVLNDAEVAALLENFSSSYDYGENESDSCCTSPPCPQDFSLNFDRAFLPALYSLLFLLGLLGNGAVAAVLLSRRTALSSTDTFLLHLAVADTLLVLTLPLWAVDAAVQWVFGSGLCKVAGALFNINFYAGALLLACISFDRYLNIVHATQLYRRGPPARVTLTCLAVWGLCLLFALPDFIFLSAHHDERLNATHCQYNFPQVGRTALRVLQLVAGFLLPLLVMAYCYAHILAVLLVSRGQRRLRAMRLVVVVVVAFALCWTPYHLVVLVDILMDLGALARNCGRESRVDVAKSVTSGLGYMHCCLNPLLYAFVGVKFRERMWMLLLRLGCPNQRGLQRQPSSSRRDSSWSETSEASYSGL
The experiment in a line: Competition binding assay with [125I]CXCL10 on membranes of CXCR3B-transfected HEK293 cells. The conditions noted are these: 80 pM 125I-CXCL10, Cheng-Prusoff. How it is done:
as §1, §2

Another experiment deals with CXCR3. The arrangement: method as in PMID 24486132. The conditions noted are these: read-out: binding affinity IC50; cited from earlier work.
Another experiment concerns the target human CXCR3. The arrangement: method as in PMID 24174496, PMID 25576486. As to conditions: cited from earlier work.

As to `CC[C@H]1CN(c2ncc(-c3nnco3)cc2Cl)CCN1C1CCN(Cc2ccc(Cl)cc2F)CC1` [compound 1, (S)-2-(5-chloro-6-(4-(1-(4-chloro-2-fluorobenzyl)piperidin-4-yl)-3-ethylpiperazin-1-yl)pyridin-3-yl)-1,3,4-oxadiazole], the values for the inhibition constant Ki on CXCR3A and at CXCR3B were 0.81 ± 0.02 nM and 0.31 ± 0.02 nM, respectively. For the same molecule, in the experiment on CXCR3, the IC50 is 0.8 nM.

Consider `CCNC(=O)c1cnc(N2CCN(C3CCN(Cc4ccc(Cl)cc4)CC3)[C@@H](CC)C2)c(Cl)c1` [VUF11211], for which the Kd on human CXCR3 is 0.65 nM.

In general, Ki refers to a dissociation constant, usually derived from enzyme kinetics or from competition with a known ligand. A higher Ki goes with a looser hold on the target. By IC50 is commonly meant the point on the concentration scale where inhibition reaches its midpoint. In general, Kd refers to the free concentration of one partner at which half of the binding sites on the other are occupied at equilibrium, for simple one-to-one binding.
